Source: patent US11141368B2, “Cosmetic composition, cosmetic treatment method, kit, and compound” (L'OREAL, priority 2010, dated 2021)

Columns and labels:
[1] = Improvement of hair straightening: leave-in post-treatment of alkaline-straightened hair, visual observation; details: 5% by weight in distilled water
Description: Applied to hair (originally curly hair of curliness IV) straightened by an alkaline hair-straightening product (Goldys—2% active sodium hydroxide) is the following composition, with an amount of product/amount of hair ratio (g/g) of 2, without rinsing: • 5% by weight of compound (2) from Example 2 • qs for 100% distilled water
Observations are made at T0.
The locks are then washed once or 5 times using Ultra Mild shampoo (Garnier), then dried. Observations are made at T1 (after 1 shampoo wash) and at T5 (after 5 shampoo washes).
The control locks are treated with a composition comprising 100% distilled water.

[2] = Porosity measurement of the locks of hair using a fluorescent probe; details: after 5 shampoo washes, 5% by weight in distilled water

Cc1cc(=O)nc(NC(=O)NCCCN(C)C)[nH]1 [Compound 2, N-[3-(dimethylamino)propyl]-N′-(6-methyl-4-oxo-1,4-dihydropyrimidin-2-yl)urea]
hair-straightening efficiency compared to control post-treatment (distilled water) ([1]; T0, product/hair ratio 2 g/g, no rinsing, hair straightened with 2% sodium hydroxide product): improved
persistence of the improvement in hair-straightening efficiency after shampoo washes ([1]; T1 (after 1 shampoo wash) and T5 (after 5 shampoo washes)): persists
internal porosity of the hair versus control hair [2]: equivalent porosity
